Inhibition and Kd data for one compound are collected here from ChEMBL document CHEMBL4507264, “Data for DCP probe BAY-7598” (2021).

Data set [1] concerns the target Sodium-dependent noradrenaline transporter (Homo sapiens) (UniProt P23975). The conditions noted are these: Compound concentration 10.0 uM.
Data set [2] addresses L-type calcium channel, dihydropyridine site (Cav1.2 alpha-1C) (Homo sapiens, UniProt Q13936). The experiment in a line: Inhibition of Calcium Channel L-Type, Dihydropyridine at 10 µM in the Eurofins-Panlabs radioligand binding assay (Eurofins_assay_214600). Set-up: ligand concentration 0.1 nM, non-specific ligand with concentration 1 µM Nitrendipine, incubation time 90 min, incubation temperature 25 °C. The conditions noted are these: Wistar, rat, rat cerebral cortex preparation, probe [3H] Nitrendipine; compound concentration 10 uM; target entry is the homologue from another species.

Another data set is filed under the species Rattus norvegicus. The experiment in a line: Inhibition of Rolipram at 10 µM in the Eurofins-Panlabs radioligand binding assay (Eurofins_assay_268811). In kind it is protein assay. Set-up: ligand concentration 1.8 nM. The conditions noted are these: Compound concentration 10.0 uM.
The target in data set [3] is T1, Muscarinic acetylcholine receptor M2 (Homo sapiens) (UniProt P08172).
T1 sequence (whole entry): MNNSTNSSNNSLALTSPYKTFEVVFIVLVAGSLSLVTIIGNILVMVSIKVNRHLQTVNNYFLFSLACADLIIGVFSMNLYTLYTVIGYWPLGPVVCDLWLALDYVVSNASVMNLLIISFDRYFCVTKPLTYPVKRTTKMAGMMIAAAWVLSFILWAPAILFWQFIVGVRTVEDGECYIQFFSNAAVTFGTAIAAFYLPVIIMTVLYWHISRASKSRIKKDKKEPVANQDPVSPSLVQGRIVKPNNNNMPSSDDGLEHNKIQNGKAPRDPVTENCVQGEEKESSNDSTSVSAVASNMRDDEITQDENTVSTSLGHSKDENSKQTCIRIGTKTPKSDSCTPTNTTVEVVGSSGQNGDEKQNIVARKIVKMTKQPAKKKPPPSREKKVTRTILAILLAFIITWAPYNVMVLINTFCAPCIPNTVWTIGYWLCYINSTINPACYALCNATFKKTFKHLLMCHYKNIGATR
The conditions noted are these: Compound concentration 10.0 uM.

The target in data set [4] is Beta-2 adrenergic receptor (Homo sapiens) (UniProt P07550). The conditions noted are these: Compound concentration 10.0 uM.
Data set [5] has as its target D(1A) dopamine receptor (Homo sapiens) (UniProt P21728). The conditions noted are these: Compound concentration 10.0 uM.
Data set [6] has as its target Epidermal growth factor receptor (Homo sapiens) (UniProt P00533). The data set can be described thus: Inhibition of Epidermal Growth Factor (EGF) at 10 µM in the Eurofins-Panlabs radioligand binding assay (Eurofins_assay_225510). Particulars: Compound concentration 10.0 uM.
Data set [7] deals with Platelet-activating factor receptor (Homo sapiens) (UniProt P25105). The experiment in a line: Inhibition of Platelet Activating Factor (PAF) at 10 µM in the Eurofins-Panlabs radioligand binding assay (Eurofins_assay_265010). The conditions noted are these: Compound concentration 10.0 uM.
Data set [8] deals with Histamine H3 receptor (Homo sapiens) (UniProt Q9Y5N1). The conditions noted are these: Compound concentration 10.0 uM.
The target in data set [9] is Voltage-dependent N-type calcium channel subunit alpha-1B (Homo sapiens) (UniProt Q00975). The experiment in a line: Inhibition of Calcium Channel N-Type at 10 µM in the Eurofins-Panlabs radioligand binding assay (Eurofins_assay_216000). Particulars: Rattus norvegicus; Compound concentration 10.0 uM.
For data set [10], the target named is Sigma non-opioid intracellular receptor 1 (Homo sapiens) (UniProt Q99720). The experiment in a line: Inhibition of Sigma 1 at 10 µM in the Eurofins-Panlabs radioligand binding assay (Eurofins_assay_278110). Particulars: Compound concentration 10.0 uM. The arrangement: ligand concentration 8 nM.
Another data set is filed under the species Mus musculus. The data set can be described thus: Inhibition of Phorbol Ester at 10 µM in the Eurofins-Panlabs radioligand binding assay (Eurofins_assay_264500). Set-up: ligand concentration 3 nM. The conditions noted are these: Compound concentration 10.0 uM.
Data set [11] deals with Alpha-1A adrenergic receptor (Homo sapiens) (UniProt P35348). The conditions noted are these: Rattus norvegicus; Compound concentration 10.0 uM.
Data set [12] has as its target Endothelin receptor type B (Homo sapiens) (UniProt P24530). The conditions noted are these: Compound concentration 10.0 uM.
Data set [13] has as its target Macrophage metalloelastase (Homo sapiens, UniProt P39900). The experiment in a line: Biophysical assay (SPR biosensor-based assay). In general terms: SPR reads the build-up and loss of mass on a sensor chip optically.

Molecules are shown by their SMILES. Activity calls are given as the source filed them. No cut-off for these calls is given here.

L-type calcium channel, dihydropyridine site (Cav1.2 alpha-1C), sequence (Q13936 whole entry): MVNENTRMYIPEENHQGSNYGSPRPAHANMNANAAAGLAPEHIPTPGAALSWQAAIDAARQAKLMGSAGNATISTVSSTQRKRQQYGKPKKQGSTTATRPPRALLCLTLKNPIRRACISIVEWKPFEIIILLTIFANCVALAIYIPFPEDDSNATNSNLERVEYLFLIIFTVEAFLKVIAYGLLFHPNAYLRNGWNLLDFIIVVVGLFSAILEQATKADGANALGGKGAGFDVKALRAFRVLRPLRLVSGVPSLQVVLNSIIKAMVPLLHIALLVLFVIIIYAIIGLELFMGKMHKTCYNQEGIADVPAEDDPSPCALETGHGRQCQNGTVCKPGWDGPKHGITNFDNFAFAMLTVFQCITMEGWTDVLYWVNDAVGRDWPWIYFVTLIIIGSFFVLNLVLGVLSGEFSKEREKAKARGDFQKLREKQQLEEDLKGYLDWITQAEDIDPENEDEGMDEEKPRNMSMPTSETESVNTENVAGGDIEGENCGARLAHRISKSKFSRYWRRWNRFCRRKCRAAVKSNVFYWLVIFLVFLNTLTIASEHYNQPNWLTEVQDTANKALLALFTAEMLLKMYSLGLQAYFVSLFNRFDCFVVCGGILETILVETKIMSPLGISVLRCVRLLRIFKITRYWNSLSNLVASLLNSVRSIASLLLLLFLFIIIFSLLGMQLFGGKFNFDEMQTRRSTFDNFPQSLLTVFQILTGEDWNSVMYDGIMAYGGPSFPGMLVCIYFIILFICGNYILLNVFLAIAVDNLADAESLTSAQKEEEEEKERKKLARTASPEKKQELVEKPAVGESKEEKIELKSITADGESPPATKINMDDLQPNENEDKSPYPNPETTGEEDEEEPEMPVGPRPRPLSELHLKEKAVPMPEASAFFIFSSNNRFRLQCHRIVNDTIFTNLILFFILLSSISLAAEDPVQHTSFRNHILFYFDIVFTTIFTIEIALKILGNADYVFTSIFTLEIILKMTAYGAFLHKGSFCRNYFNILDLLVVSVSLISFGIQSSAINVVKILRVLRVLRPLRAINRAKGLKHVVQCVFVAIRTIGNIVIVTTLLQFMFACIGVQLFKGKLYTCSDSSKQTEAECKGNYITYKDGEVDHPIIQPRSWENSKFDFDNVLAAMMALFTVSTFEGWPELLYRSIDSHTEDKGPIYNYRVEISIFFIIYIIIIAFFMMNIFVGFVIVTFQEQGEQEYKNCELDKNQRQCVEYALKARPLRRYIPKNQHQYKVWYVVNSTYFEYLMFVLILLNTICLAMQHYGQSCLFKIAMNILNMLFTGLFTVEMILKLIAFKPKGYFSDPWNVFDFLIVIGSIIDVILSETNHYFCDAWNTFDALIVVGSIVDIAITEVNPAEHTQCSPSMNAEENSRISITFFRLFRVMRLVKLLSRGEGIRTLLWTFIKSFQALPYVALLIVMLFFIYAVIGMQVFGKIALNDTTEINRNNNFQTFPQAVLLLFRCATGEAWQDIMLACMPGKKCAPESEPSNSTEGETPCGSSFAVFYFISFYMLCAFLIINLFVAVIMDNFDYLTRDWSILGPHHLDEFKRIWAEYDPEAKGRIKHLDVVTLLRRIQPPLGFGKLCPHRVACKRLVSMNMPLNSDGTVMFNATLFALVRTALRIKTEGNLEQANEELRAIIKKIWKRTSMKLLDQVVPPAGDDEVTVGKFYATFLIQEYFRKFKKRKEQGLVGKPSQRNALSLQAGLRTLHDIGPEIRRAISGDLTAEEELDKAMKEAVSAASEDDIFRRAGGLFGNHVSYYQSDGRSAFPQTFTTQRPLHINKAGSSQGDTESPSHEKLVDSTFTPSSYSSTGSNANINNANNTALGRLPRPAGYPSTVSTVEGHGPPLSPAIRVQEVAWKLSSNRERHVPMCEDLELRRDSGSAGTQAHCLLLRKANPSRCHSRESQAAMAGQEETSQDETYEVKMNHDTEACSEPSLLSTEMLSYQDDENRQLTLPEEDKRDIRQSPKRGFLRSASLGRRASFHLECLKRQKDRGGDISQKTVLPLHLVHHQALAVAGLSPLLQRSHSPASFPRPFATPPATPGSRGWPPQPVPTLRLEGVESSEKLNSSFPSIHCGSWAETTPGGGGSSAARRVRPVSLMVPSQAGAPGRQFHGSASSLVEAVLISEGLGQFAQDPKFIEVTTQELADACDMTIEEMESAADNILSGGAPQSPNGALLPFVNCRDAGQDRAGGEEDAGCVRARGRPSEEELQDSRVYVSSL
D(1A) dopamine receptor (Homo sapiens), sequence (P21728 whole entry): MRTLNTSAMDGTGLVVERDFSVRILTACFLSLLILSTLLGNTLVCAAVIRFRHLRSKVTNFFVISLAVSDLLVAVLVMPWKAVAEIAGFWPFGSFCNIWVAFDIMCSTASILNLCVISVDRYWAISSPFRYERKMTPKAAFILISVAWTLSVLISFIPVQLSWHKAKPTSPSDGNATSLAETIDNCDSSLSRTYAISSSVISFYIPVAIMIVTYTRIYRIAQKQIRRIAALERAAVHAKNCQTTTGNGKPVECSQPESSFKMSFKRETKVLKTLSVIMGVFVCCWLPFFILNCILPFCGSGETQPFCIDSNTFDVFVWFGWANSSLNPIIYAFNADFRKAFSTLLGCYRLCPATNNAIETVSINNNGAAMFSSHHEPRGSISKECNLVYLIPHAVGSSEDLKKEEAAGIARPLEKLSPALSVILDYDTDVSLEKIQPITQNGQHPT
Alpha-1A adrenergic receptor (Homo sapiens), sequence (P35348 whole entry): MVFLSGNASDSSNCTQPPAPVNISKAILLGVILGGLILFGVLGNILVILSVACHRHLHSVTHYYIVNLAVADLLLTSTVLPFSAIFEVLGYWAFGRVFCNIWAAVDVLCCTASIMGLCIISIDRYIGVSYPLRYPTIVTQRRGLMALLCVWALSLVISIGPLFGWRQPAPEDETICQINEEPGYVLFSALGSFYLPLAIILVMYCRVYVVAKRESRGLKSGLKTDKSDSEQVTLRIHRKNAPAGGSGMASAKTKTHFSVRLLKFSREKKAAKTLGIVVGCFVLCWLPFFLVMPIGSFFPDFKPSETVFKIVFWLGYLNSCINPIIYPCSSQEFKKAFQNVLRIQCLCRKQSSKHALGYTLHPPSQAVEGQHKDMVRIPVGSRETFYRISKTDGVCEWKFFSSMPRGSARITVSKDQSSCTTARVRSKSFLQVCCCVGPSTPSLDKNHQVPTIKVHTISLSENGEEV
Macrophage metalloelastase, sequence (P39900 whole entry): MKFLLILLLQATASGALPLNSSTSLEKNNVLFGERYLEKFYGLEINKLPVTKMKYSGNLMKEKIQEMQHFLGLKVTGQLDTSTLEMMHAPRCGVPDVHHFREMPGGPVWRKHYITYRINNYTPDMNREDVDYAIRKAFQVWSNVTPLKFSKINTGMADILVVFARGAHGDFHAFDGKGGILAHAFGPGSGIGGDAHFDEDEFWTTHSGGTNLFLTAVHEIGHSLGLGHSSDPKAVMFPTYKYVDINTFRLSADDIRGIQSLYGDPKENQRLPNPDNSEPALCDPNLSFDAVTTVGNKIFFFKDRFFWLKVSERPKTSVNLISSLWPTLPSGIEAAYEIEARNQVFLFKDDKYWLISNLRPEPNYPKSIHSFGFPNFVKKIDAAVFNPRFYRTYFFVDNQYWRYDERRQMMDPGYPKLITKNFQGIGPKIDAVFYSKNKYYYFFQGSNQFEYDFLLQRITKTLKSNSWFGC
Epidermal growth factor receptor (Homo sapiens), sequence (P00533 whole entry): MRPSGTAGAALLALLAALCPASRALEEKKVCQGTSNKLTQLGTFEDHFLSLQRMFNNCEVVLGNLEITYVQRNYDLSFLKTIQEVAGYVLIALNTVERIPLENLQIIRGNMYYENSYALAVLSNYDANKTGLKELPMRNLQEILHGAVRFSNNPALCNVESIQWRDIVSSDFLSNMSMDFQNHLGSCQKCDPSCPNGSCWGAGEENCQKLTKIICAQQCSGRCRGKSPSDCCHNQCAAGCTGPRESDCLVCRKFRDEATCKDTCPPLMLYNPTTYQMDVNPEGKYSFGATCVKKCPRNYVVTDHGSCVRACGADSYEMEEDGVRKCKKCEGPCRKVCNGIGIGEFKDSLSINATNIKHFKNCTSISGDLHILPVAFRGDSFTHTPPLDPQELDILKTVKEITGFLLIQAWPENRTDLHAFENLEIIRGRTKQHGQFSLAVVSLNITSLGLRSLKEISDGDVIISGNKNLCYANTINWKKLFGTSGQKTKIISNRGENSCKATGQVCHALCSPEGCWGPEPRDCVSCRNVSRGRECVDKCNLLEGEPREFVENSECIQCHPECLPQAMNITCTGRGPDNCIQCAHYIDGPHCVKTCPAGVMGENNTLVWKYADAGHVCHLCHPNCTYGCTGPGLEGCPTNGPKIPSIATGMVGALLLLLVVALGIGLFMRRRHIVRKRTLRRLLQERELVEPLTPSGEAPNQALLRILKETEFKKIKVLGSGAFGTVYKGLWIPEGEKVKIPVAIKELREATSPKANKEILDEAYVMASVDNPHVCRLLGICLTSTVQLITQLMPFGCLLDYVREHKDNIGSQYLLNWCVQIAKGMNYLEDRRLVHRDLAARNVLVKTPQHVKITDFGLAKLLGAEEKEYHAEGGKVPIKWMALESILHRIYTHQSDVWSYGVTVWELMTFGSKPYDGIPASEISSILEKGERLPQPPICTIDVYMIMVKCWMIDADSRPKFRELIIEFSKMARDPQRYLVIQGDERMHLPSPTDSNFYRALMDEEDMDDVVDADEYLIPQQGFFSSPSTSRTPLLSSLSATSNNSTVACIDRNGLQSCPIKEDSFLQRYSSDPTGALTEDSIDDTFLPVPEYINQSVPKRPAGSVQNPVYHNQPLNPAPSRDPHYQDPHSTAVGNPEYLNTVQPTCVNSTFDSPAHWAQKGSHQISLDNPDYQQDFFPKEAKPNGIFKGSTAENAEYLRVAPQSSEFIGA
Sigma non-opioid intracellular receptor 1 (Homo sapiens), sequence (Q99720 whole entry): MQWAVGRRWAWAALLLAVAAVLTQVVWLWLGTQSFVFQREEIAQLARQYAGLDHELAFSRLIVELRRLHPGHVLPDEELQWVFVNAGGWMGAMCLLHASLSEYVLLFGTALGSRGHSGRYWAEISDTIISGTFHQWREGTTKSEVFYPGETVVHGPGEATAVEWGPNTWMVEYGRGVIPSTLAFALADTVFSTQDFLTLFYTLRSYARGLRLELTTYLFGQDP

As for `O=C(O)[C@H]1[C@H](Cn2nnc3ccccc3c2=O)CC[C@@H]1C(=O)c1ccc(OCCC2CCOCC2)cc1` [BAY-7598], the inhibition was 6% in [1]; 10% in the data set filed under Rattus norvegicus; 0% in data set [3]; 4% in data set [4]; 3% in data set [5]; 7% in [6]. Also, the inhibition in data set [7] was 6%; in data set [8] it was -6%; in [9], 6%; in [10] it was -7%; in the data set filed under Mus musculus, 4%; in data set [11], 1%. Also, in data set [12], the inhibition was 18%. Moreover, in data set [2], the inhibition at 90 min, 10 µM was 0% (not active). The Kd in data set [13] is 4 pM (active).

Broadly, the inhibition is the drop in the measured response relative to a control, in per cent. Broadly, the Kd is the free concentration of one partner at which half of the binding sites on the other are occupied at equilibrium, for simple one-to-one binding.
